Tests used:
[1] = system: murine ATDC5 progenitor cells; assay: Proteoglycan biosynthesis (35S-GAG) in monolayer cultures, maintenance or differentiation media; format: cell-based
Source text: FIG. 21. A bar graph of the concentration dependent effects of rhNC4 (batch PBA-1202P) expressed by K. lactis, in the absence (maintenance media, MM) and presence of insulin (10 micrograms/mL) (differentiation media, DM), on the biosynthesis of Proteoglycans (PGs) as determined by the incorporation of radioactively labelled sulfate into the sulfated glycosaminoglycans (^35S-GAG) of PGs after 3 day culture with Murine ATDC5 progenitor cells. The data was expressed as % change relative to control cultures that contained no rhNC4. P<0.05 was statistically significant relative to control cultures.
FIG. 24. A bar graph of the concentration dependent effects of combinations of rhNC4 (batch PBA-1202P) and Pentosan Polysulfate (PPS) on the biosynthesis of 35S-PGs by monolayer cultures of Murine ATDC5 progenitor cells. Data is expressed relative to control (maintenance media, MM) which was taken as 100%.
FIG. 31. A bar graph of the concentration dependent effects of rhNC4 (batch PBA-1202P) expressed by K. lactis, in the absence (maintenance media, MM) and presence of insulin (10 micrograms/mL) (differentiation media, DM), on the biosynthesis of Proteoglycans (PGs) as determined by the incorporation of radioactively labelled sulfate into the sulfated glycosaminoglycans (^35S-GAG) of PGs after 3 day culture with Murine ATDC5 progenitor cells. The data was expressed as % change relative to control cultures that contained no rhNC4. P<0.05 was statistically significant relative to control cultures.
FIG. 32. A bar graph of the concentration dependent effects of Pentosan Polysulfate (PPS), in the presence of insulin (10 micrograms/mL), on the biosynthesis of Proteoglycans PGs) as determined by the incorporation of radioactively labelled sulfate into the sulfated glycosaminoglycans (^35S-GAG) of PGs after 3 day culture with Murine ATDC5 progenitor cells. The data was expressed as ^35S-GAG radioactivity as counts per minute (CPM) and decays per minute (DPM) relative to control cultures that contained no PPS. P<0.05 was statistically significant relative to control cultures.
Murine Progenitor cells (cell lines C3H10T1/2 or ATDC5) purchased from RIKEN Cell Bank (Tsukuba, Japan) or human immunoselected Stro-1+ Progenitor cells (Mesoblast Ltd, Melbourne, Australia) were seeded into 50 mL plastic culture flasks containing 1:1 high glucose DMEM/Ham's F-12 medium (Invitrogen) supplemented with 10% FBS (Sigma) and incubated at 37° C., in 5% CO2. […] The experiments were generally terminated after 48 hours incubation when proteoglycan biosynthesis was determined by measuring the incorporation of ^35SO4 into the glycosaminoglycans (^35S-GAGs) as described below.
The data was expressed as % change relative to control cultures that contained no rhNC4. […]

Primary progenitor cells = assay: Differentiation in adipogenic media: adipocyte formation, Oil Red O; format: cell-based, human; settings: FIG. 8; for differentiation of progenitor cells into adipocytes: adipogenic media, 1.0, 5.0, 10 micrograms/mL
Experimental: FIG. 8. The Effects of Pentosan Polysulfate (PPS) on Human progenitor cell Differentiation: Adipocyte Formation. Primary progenitor cells were cultured in 96 well plates in non-adipogenic growth media (media control) or under adipogenic conditions (0.5 mM methylisobutylmethylxanthine, 0.5 μM hydrocortisone, and 60 μM indomethacin) in the presence of PPS at the indicated concentrations. On day 28, the presence of lipid laden adipocytes was determined using the lipophilic dye Oil Red O. The relative amount of solubilised lipid per μg of DNA/well was determined following the assessment of the total amount of DNA per well using a fluorogenic DNA stain (Hoeshst 33258). […] (A) Phase-contrast photomicrographs of Oil Red O labeled adipocytes at ×20 magnification.
The conditions required for the development of lipids from human bone marrow stromal cells in vitro have been previously described (Gimble J. Marrow stromal adipocytes. In: Marrow stromal cell culture. J N Beresford, Owen, M. E., ed. Cambridge University Press, Cambridge, pp 67-87 (1998)). Briefly, human progenitor cells were seeded into 96-well plates at a density of 8×10^3 cells per well in complete alpha-MEM growth media and were allowed to reach >90% confluence prior to addition of inductive media. Cells were cultured in adipogenic-inductive media comprised of complete alpha-MEM supplemented with 0.5 mM 3-Isobutyl-1-methyl-xanthine (IBMX), 60 microM Indomethacin, and 0.5 microM Hydrocortisone in the presence of a titration of PPS (0.0, 1.0, 5.0, 10 micrograms/mL). The inductive media was changed twice weekly for a period of 4 weeks. Cells were stained for the presence of lipid using Oil Red ‘O’.
Cells were cultured as described above and gently rinsed in 1×PBS (pH7.4) to avoid disruption of the cell monolayer. Cells were fixed in phosphate buffered formalin for 15 minutes at RT. The fixative was subsequently removed and lipid stained by adding 100 microL of freshly filtered Oil Red O (3 mg/mL; MP Biomedicals, Australia) for ≧2 hours at RT. […]

## pentosan polysulfate [PPS]
[1]; PPS in the presence of insulin (10 micrograms/mL), 3 day culture, FIG. 32
  PG synthesis: concentration dependent stimulation of PG synthesis
[1]; PPS, monolayer, FIG. 24
  biosynthesis of 35S-PGs: effect of PPS increases with concentration
Primary progenitor cells; adipogenic conditions, day 28, PPS in excess 1 ug/ml, p<0.01, ANOVA
  adipocyte number (Oil Red O lipid per μg DNA): statistically significant increase in adipocyte number
Primary progenitor cells
  differentiation of progenitor cells into adipocytes: upregulation seen at all concentrations
Primary progenitor cells; listed as polysulfated polysaccharides
  differentiation of progenitor cells into adipocytes: showed differentiated to adipocytes

— US9888679B2, “Protection of progenitor cells and regulation of their differentiation” (Proteobioactives Pty Ltd, priority 2007, dated 2018)
